Test systems include ACHN renal; 786-0 renal; RXF 393 renal; HOP-62 NSCLC; LOX IMVI melanoma; SK-MEL-2 melanoma; SNB-19 CNS; M14 melanoma; MCF7 breast.
Common to all, as to assay: NCI-60 cell line screen, 48 h

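Growth conditions: 96-well plates. Treatment: test compound, 48 hours, 5 concentrations. Analysis: linear interpolation between bracketing concentrations; unreached endpoints set to highest concentration. GI50 = concentration required for 50% inhibition of growth. At the TGI there is no net growth.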

On to `COc1ccc2nc3cccc(C(=O)NCCN(C)C)c3nc2c1`, for which the TGI is 6.78 µM with ACHN renal; > 22.2 µM in the test with 786-0 renal; 3.21 µM with RXF 393 renal; 3.76 µM in the test with HOP-62 NSCLC; 2.45 µM in the test on LOX IMVI melanoma; 3.68 µM with SK-MEL-2 melanoma. The compound further yielded a TGI in the test with SNB-19 CNS of 19.6 µM.

With `CC1=C(C(=O)Nc2ccccc2)C(c2ccc(C(C)C)cc2)C(C(=O)Nc2ccccc2)=C(C)N1`, the TGI in the test with ACHN renal was > 66.9 µM; in the test with M14 melanoma, 55.9 µM; in the test on 786-0 renal it was 30.2 µM; in the test with RXF 393 renal, 27.6 µM; with HOP-62 NSCLC, 85.7 µM; with LOX IMVI melanoma, 30.4 µM. The TGI with SK-MEL-2 melanoma is 31.2 µM; in the test with SNB-19 CNS it was > 100 µM.

`CC(=O)O[C@H]1C=CC23OC(=O)[C@]1(C)[C@H]2[C@H](C(=O)O)C12CC(=O)[C@@](CO)(CC[C@H]13)C2`: the TGI in the test with ACHN renal, in the test on M14 melanoma, in the test on 786-0 renal, with RXF 393 renal, in the test with HOP-62 NSCLC and with LOX IMVI melanoma was > 100 µM throughout. For the same compound, the TGI with SK-MEL-2 melanoma and with SNB-19 CNS was > 100 µM each time.

For the compound `COc1ccc(C(=O)O/N=C2/CCC/C2=C\c2ccccc2)cc1`, the TGI in the test with ACHN renal, in the test with M14 melanoma, in the test on 786-0 renal, in the test with RXF 393 renal, in the test with HOP-62 NSCLC and in the test with LOX IMVI melanoma was > 100 µM throughout. For the same compound, the TGI in the test on SK-MEL-2 melanoma and in the test on SNB-19 CNS was > 100 µM throughout.

Consider `COc1ccc(C2=NOP(c3ccccc3)(c3ccccc3)(c3ccccc3)C2)cc1`, for which the TGI was > 100 µM with ACHN renal; 41.9 µM in the test on M14 melanoma; > 53.4 µM in the test with 786-0 renal; 97.4 µM in the test with RXF 393 renal; > 100 µM in the test on HOP-62 NSCLC; 27.1 µM in the test with LOX IMVI melanoma. In addition, the TGI in the test with SK-MEL-2 melanoma is > 60 µM; with SNB-19 CNS, > 100 µM.

Regarding `Nc1c(-c2nc3ccccc3[nH]2)sc(=S)n1-c1ccc(Cl)cc1`, the TGI is 43 µM in the test with ACHN renal; 82.7 µM in the test with M14 melanoma; 36.7 µM in the test on 786-0 renal; 41.3 µM in the test on RXF 393 renal; 47.3 µM with HOP-62 NSCLC; 50.5 µM in the test with LOX IMVI melanoma. In addition, the values for the TGI with SK-MEL-2 melanoma and in the test with SNB-19 CNS were 63.8 µM and 57.4 µM, respectively.

`COc1cc2c(cc1OC)-c1ncc3cc4c(cc3c1C2)OCO4`: the GI50 in the test on ACHN renal is > 100 µM; in the test with M14 melanoma, 19.6 µM; with 786-0 renal, 18.3 µM; with RXF 393 renal, 50.2 µM; in the test on LOX IMVI melanoma it was > 100 µM; with MCF7 breast, 12.4 µM. Moreover, the values for the GI50 in the test on SK-MEL-2 melanoma and in the test with SNB-19 CNS were 32.2 µM and 60 µM, respectively. Besides, the TGI is > 100 µM in the test with ACHN renal; 82.5 µM in the test with M14 melanoma; 45.5 µM in the test with 786-0 renal; > 100 µM in the test with RXF 393 renal; > 100 µM in the test on LOX IMVI melanoma; 30.6 µM in the test on MCF7 breast. The values for the TGI with SK-MEL-2 melanoma and in the test with SNB-19 CNS were 75.8 µM and > 100 µM, respectively.

Turning to `O=C(/C(=C/c1ccccc1)c1ccccc1)N1c2ccccc2CC1c1c[nH]c2ccccc12` (stereo not drawn), the TGI in the test with ACHN renal, in the test on M14 melanoma, with 786-0 renal, in the test on RXF 393 renal, in the test with HOP-62 NSCLC and with LOX IMVI melanoma was > 100 µM each time. For the same compound, the TGI in the test on SK-MEL-2 melanoma was 81.9 µM; in the test on SNB-19 CNS, > 100 µM.

For the compound `NCP(=O)(O)OCC(=O)O`, the TGI in the test with ACHN renal, in the test on M14 melanoma, with 786-0 renal, with RXF 393 renal, in the test with HOP-62 NSCLC and with LOX IMVI melanoma was > 100 µM throughout. Moreover, the TGI with SK-MEL-2 melanoma and in the test with SNB-19 CNS was > 100 µM throughout.

In the case of `N#C/C(=C\c1ccccc1Br)C(=O)c1ccccc1`, the TGI was > 89.6 µM with ACHN renal; > 68.1 µM in the test with M14 melanoma; 30.5 µM with 786-0 renal; > 100 µM in the test on RXF 393 renal; > 100 µM in the test on HOP-62 NSCLC; 28.3 µM with LOX IMVI melanoma. Also, the figures for the TGI with SK-MEL-2 melanoma and in the test on SNB-19 CNS were > 100 µM and > 87.3 µM, respectively.

On to `NS(=O)(=O)c1ccc(NC(=O)COC(=O)c2cccc3c(=O)c4ccccc4[nH]c23)cc1`, for which the TGI in the test with ACHN renal was 71.9 µM; in the test with M14 melanoma it was > 100 µM; in the test on 786-0 renal, 45.3 µM; with RXF 393 renal, 42.3 µM; with HOP-62 NSCLC, 40.2 µM; in the test with LOX IMVI melanoma, 43 µM. The TGI in the test on SK-MEL-2 melanoma turned out to be 69.8 µM; in the test on SNB-19 CNS it was 45.2 µM.

With `C#CCN(C)C(=O)N(CC#C)N=O`, the TGI in the test on ACHN renal, with M14 melanoma, in the test on 786-0 renal, in the test with RXF 393 renal, in the test with HOP-62 NSCLC and in the test with LOX IMVI melanoma was > 100 µM throughout. The TGI in the test with SK-MEL-2 melanoma and in the test with SNB-19 CNS was > 100 µM each time.

The values are drawn from PubChem BioAssay (NCI).
